This assay deals with T1, HIV protease (Human immunodeficiency virus type 1 group M subtype B, UniProt P03366).
T1 construct: made in house; host or cells: Escherichia coli
Description: Assay for Inhibition of Microbial Expressed Vital Protease (protease expressed in Eschericia coli, peptide substrate, HPLC of products). Format: biochemical. To be noted: peptide substrate Val-Ser-Gln-Asn-(betanapthyl)Ala-Pro-Ile-Val 0.5 mg/mL; 50 mM Na acetate, pH 5.5, 30° C., 1 hour; 15 ul of 0.33 nM protease. The protocol:
Assay for Inhibition of Microbial Expressed Vital Protease
Inhibition studies of the reaction of the protease expressed in Eschericia coli with a peptide substrate Val-Ser-Gln-Asn-(betanapthyl)Ala-Pro-Ile-Val, 0.5 mg/mL at the time the reaction is initiated! were in 50 mM Na acetate, p H 5.5, at 30° C. for 1 hour. Various concentrations of inhibitor in 1.0 ul DMSO were added to 25 ul of the peptide solution in water. The reaction is initiated by the addition of 15 ul of 0.33 nM protease (0.11 ng) in a solution of 0.133M Na acetate pH 5.5 and 0.1% bovine serum albumin. The reaction was quenched with 160 ul of 5% phosphoric acid. Products of the reaction were separated by HPLC (VYDAC wide pore 5 cm C-18 reverse phase, acetonitrile gradient, 0.1% phosphoric acid). The extent of inhibition of the reaction was determined from the peak heights of the products.

For orientation: IC50 means the concentration that gives 50% inhibition. The low end stands for greater potency in that assay, the high end for weaker potency in that assay. For `CCCCC(=O)C[C@@H](CC1CCCCC1)[C@@H](O)C[C@@H](Cc1ccccc1)C(=O)N[C@H]1c2ccccc2C[C@H]1O` [Compound A, N-(2(R)-hydroxy-1(S)-indanyl)-5(R)-cyclohexylmethyl-4(S)-hydroxy-7-oxo-2(R) -phenylmethyl undecaneamide], the half-maximal inhibitory concentration (IC50) lay in the range of 11.5 to 58 nM.

For the compound `CC(C)(C)CC(=O)C[C@@H](CC1CCCCC1)[C@@H](O)C[C@@H](Cc1ccccc1)C(=O)N[C@H]1c2ccccc2C[C@H]1O` [Compound B, N-(2(R)-hydroxy-1(S)-indanyl)-5(R)-cyclohexylmethyl-9,9-dimethyl-4(S)-hydroxy-7-oxo-2(R)-phenylmethyl decaneamide], the IC50 fell in the range of 11.5 to 58 nM.

(Values after patent US5502053A, “HIV protease inhibitor compounds” (Merck & Co., Inc., priority 1994, dated 1996).)
